Test results as given in patent US8003615B2, “Stable vitamin B6 derivative” (Daiichi Fine Chemical Co., Ltd., priority 2003, dated 2011).

Legend:
[1] = format: physicochemical; details: 0.5% (w/v) aqueous solution, D65 fluorescent lamp 13,000 Lx
Protocol: A 0.5% (w/v) aqueous solution of pyridoxine 3-β-D-glucoside (pH 6.7) in a volume of 0.3 ml was enclosed in a 1-ml volume glass ampoule, and irradiated with a D65 fluorescent lamp (Toshiba) for 14 days. The irradiation was performed at room temperature with an illumination of 13,000 Lx. Samples before the irradiation and after 1 day, 7 days and 14 days of the irradiation were analyzed by HPLC to measure a pyridoxine 3-β-D-glucoside content. A solution of pyridoxine hydrochloride of the same concentration (adjusted to pH 6.7) was treated in the same manner, and the results were compared. The HPLC measurement conditions were as follows.
Column: Inertsil ODS-3 ([…], ([…], φ4.6×150 mm, GL Science Inc.)
Eluent acetonitrile:0.1% (v/v) trifluoroacetic acid, 5 mM sodium 1-hexanesulfonate=1:9
Column temperature: 40° C.
Aqueous solutions (0.5% (w/v)) of pyridoxine 3-β-D-glucoside hydrochloride, pyridoxal 3-β-D-glucoside, pyridoxamine 3-β-D-glucoside, pyridoxine 3-β-D-galactoside, and pyridoxine hydrochloride (adjusted to pH 6.3 to 7.2 with HCl or NaOH) were each sealed in a volume of 0.3 ml in a 1-ml volume glass ampoule, and light irradiation and HPLC quantification were performed in the same manner as in Test Example 1. […] Test Example 4 (thermal stability of pyridoxine 3-β-D-glucoside hydrochloride and various 3-glycosides) […]

[2] = Thermal stability of aqueous solution kept at 50° C., HPLC; format: physicochemical; details: 0.5% (w/v) aqueous solution, 50° C. for 90 days
Protocol: A 0.5% (w/v) aqueous solution of pyridoxine 3-β-D-glucoside (pH 6.7) in a volume of 0.3 ml was sealed in a 1-ml volume glass ampoule, and kept at 50° C. under light shielding. The sample was warmed for 90 days, and analyzed during the warming by HPLC (analysis conditions were the same as those applied in Test Example 1) to measure a pyridoxine 3-β-D-glucoside content. A solution of pyridoxine hydrochloride of the same concentration (adjusted to pH 6.7) was treated in the same manner, and the results were compared.
Aqueous solutions (0.5% (w/v)) of pyridoxine 3-β-D-glucoside hydrochloride, pyridoxal 3-β-D-glucoside, pyridoxamine 3-β-D-glucoside, pyridoxine 3-β-D-galactoside, pyridoxine hydrochloride, pyridoxal hydrochloride, and pyridoxamine hydrochloride (adjusted to pH 6.3 to 7.2 with HCl or NaOH) were each sealed in a volume of 0.3 ml in a 1-ml volume glass ampoule, […] in the same manner as in Test Example 2.
0.5% (w/v) Aqueous solutions of pyridoxine 3,4′-cyclic sodium phosphate and pyridoxine hydrochloride (adjusted to pH 6.5 to 6.8) were each sealed in a volume of 0.3 ml in a 1-ml volume glass ampoule, and warming at 50° C. and HPLC analysis were performed in the same manner as in Test Example 2.

[3] = Light stability in an eye lotion; format: physicochemical
Protocol: Neostigmine methylsulfate (5 mg), potassium L-aspartate (0.4 g), boric acid (5 mg), sodium borate (5 mg), methyl paraoxybenzoate (10 mg), chlorobutanol (0.1 g), and vitamin B6 derivative (0.1 g) were dissolved in sterilized purified water (70 ml). After dissolution, the solution was made into a volume of 100 ml with sterilized purified water to prepare an eye lotion. In this preparation, precipitates and the like were not observed. The prepared eye lotion in a volume of 6 ml was put into a glass bottle, and exposed to light of a D65 fluorescent lamp at a total illumination of 0, 60,000, 180,000, or 300,000 lux·hr, and then the vitamin B6 derivative was quantified by the HPLC method in the same manner as in Test Example 11 mentioned above.

[4] = Light stability in a dog food; format: physicochemical
Protocol: A vitamin B6 derivative (0.1 g) was added to wheat flour (10 g), and uniformly mixed. The mixture was further successively added with breast meat of chicken (40.0 g), soybean protein (30.0 g), glucose (5.0 g), citric acid (0.001 g), sodium chloride (1.0 g), copper sulfate (0.01 g), iron sulfate (0.01 g), sorbic acid (0.3 g), and propylene glycol (5.0 g), and uniformly mixed. The mixture was made 100 g with purified water, and uniformly mixed to prepare dog food.
The prepared dog food in an amount of 5 g was put into a petri dish, and exposed to light of a D65 fluorescent lamp at a total illumination of 0, 60,000, 180,000, or 300,000 lux·hr, and then the vitamin B6 derivative was quantified by the HPLC method in the same manner as in Test Example 11 mentioned above.

[5] = Test for change in formulation: powder mixed with calcium pantothenate; format: physicochemical; details: 40° C. and 75% humidity, one month
Protocol: Calcium pantothenate (1 g) and a vitamin B6 derivative (1 g) was uniformly mixed in a mortar to prepare a sample in the form of a powder for stability test. The sample placed in an opened glass bottle was stored in an oven at 40° C. under 75% humidity. Appearance of the sample was examined by visual inspection after 0 day, 14 days, and one month, and the vitamin B6 derivative and calcium pantothenate were quantified by the HPLC method in the same manner as in Test Example 11 mentioned above, provided that the detection wavelength for calcium pantothenate was 210 nm.

[6] = Test for change in formulation: aqueous solution with calcium pantothenate; format: physicochemical; details: aqueous solution 0.1 g + 0.1 g calcium pantothenate per 100 ml, 40° C., one month
Protocol: Calcium pantothenate (0.1 g) and a vitamin B6 derivative (0.1 g) were dissolved in purified water and made 100 ml to prepare a sample for stability test in the form of a solution. The sample filled in a sealed glass bottle was stored at 40° C. Appearance of the sample was examined by visual inspection after 0 day, 14 days, and one month, and the vitamin B6 derivative and calcium pantothenate were quantified by the HPLC method in the same manner as in Test Example 11 mentioned above, provided that the detection wavelength for calcium pantothenate was 210 nm.

[7] = D65 fluorescent lamp, 180,000 lux·hr for 3 days
[8] = D65 fluorescent lamp, 300,000 lux·hr for 5 days

Compound: Cc1ncc(CO)c(CO)c1O.Cl [pyridoxine hydrochloride]
- coloring of the aqueous solution after the light irradiation [1]: colored in pale yellow
- coloring of the aqueous solution after the warming [2]: colored in yellow
- remained substance in eye lotion after irradiation [3, 7]: 68%
- remained substance in eye lotion after irradiation [3, 8]: 49%
- remained substance in dog food after irradiation [4, 7]: 90%
- remained substance in dog food after irradiation [4, 8]: 85%
- remained calcium pantothenate in the formulation with the substance ([5]; powder 1 g + 1 g calcium pantothenate): 81%
- appearance of the formulation with calcium pantothenate ([5]; powder, visual inspection): the white appearance became brown, and blocking and deliquescence were observed
- remained calcium pantothenate in the formulation with the substance [6]: 83%
